Results: ChEMBL document CHEMBL1201862, “PubChem BioAssay data set” (2004)
Activity calls are given as the source filed them.

Key:
[1] = target: T1, Mannose-6-phosphate isomerase (Homo sapiens, UniProt P34949); assay: MPI inhibition at elevated mannose 6-phosphate – biochemical, fluorescence intensity, high mannose 6-phosphate, primary screen (AID 1220)
T1 sequence (P34949 whole entry): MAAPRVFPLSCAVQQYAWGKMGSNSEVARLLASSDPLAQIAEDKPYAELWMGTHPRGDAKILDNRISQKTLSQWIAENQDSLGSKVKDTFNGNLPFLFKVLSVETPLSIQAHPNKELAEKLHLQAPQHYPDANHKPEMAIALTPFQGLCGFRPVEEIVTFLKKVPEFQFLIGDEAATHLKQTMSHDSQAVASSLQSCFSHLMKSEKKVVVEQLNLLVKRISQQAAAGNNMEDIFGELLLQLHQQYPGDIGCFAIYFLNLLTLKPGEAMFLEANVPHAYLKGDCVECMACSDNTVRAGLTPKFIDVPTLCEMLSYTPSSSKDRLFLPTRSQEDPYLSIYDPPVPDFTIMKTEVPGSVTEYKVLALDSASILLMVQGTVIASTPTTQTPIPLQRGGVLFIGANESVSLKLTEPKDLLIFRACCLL

[2] = luciferase reporter signal suppression in cells – H4 neuroglioma cells, luminescence, dose response (AID 1990); type: functional, cell-based
[3] = target: Serine/threonine-protein phosphatase PP1-alpha catalytic subunit (Homo sapiens, UniProt P62136); assay: inhibition of protein phosphatase 1 activity – biochemical, fluorescence, dose response (AID 2394)
Chain of Serine/threonine-protein phosphatase PP1-alpha catalytic subunit (P62136 whole entry): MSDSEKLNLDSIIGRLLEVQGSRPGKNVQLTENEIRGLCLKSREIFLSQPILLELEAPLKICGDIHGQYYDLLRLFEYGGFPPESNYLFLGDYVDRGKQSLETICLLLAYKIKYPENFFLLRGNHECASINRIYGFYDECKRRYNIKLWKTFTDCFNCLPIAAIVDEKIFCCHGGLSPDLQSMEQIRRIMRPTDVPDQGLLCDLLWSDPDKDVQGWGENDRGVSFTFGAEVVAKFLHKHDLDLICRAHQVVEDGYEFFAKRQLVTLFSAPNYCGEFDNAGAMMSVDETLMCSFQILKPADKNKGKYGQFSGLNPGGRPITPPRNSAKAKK

[4] = target: cGMP-dependent protein kinase 1 (Homo sapiens, UniProt Q13976); type: functional;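 also: value from a kinome panel screen with PRKG1 as the panel member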
[5] = target: Serine/threonine-protein kinase PLK3 (Homo sapiens, UniProt Q9H4B4); type: functional
[6] = target: Mitogen-activated protein kinase 9 (Homo sapiens, UniProt P45984); type: functional;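 also: value from a kinome panel profiling assay, MAPK9 panel entry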
[7] = target: Macrophage-stimulating protein receptor (Homo sapiens, UniProt Q04912); assay: Navigating the Kinome. Panel member name: MST1R; type: functional
[8] = target: Vascular endothelial growth factor receptor 3 (Homo sapiens, UniProt P35916); type: functional;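 also: value from a kinome-wide profiling panel, with FLT4 as the panel member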
Chain of Vascular endothelial growth factor receptor 3 (P35916 whole entry, canonical isoform): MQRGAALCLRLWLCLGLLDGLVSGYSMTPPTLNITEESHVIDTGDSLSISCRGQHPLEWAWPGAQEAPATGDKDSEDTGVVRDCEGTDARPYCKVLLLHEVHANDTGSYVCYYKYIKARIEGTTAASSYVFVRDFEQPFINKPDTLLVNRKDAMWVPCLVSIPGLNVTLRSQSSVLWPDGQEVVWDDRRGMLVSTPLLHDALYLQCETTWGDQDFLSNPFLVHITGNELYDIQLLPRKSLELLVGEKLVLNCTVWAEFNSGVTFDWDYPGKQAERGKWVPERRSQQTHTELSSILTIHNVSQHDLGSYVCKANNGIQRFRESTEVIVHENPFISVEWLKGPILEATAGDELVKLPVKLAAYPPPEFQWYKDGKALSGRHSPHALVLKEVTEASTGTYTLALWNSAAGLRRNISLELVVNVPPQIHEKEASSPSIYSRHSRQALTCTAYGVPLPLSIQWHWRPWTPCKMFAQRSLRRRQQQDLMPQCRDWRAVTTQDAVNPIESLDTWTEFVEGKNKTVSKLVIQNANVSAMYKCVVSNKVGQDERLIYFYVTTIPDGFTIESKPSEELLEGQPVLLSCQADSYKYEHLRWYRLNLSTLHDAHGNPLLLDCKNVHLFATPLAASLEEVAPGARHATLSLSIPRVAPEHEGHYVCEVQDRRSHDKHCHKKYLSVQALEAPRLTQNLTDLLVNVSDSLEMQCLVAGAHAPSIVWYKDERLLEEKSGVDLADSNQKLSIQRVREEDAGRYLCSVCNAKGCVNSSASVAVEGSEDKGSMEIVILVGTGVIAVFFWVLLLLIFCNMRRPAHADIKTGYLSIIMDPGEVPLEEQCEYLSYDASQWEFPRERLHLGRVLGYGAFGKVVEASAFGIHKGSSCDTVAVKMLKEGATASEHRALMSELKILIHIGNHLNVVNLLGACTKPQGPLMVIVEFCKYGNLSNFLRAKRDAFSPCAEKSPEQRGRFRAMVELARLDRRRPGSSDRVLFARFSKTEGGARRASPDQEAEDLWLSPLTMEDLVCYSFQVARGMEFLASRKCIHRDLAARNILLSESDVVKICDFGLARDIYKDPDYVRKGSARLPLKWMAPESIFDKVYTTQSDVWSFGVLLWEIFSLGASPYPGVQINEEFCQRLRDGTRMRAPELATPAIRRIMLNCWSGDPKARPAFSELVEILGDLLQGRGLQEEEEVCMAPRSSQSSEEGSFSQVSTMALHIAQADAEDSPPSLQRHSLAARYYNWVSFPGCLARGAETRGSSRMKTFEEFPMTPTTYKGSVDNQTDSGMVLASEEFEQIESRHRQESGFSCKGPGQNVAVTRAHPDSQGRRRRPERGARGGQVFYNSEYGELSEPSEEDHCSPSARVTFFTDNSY

[9] = target: Casein kinase I isoform delta (Homo sapiens, UniProt P48730); type: functional;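 also: measured as one member (CSNK1D) of a kinome panel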
Chain of Casein kinase I isoform delta (P48730 whole entry, canonical isoform): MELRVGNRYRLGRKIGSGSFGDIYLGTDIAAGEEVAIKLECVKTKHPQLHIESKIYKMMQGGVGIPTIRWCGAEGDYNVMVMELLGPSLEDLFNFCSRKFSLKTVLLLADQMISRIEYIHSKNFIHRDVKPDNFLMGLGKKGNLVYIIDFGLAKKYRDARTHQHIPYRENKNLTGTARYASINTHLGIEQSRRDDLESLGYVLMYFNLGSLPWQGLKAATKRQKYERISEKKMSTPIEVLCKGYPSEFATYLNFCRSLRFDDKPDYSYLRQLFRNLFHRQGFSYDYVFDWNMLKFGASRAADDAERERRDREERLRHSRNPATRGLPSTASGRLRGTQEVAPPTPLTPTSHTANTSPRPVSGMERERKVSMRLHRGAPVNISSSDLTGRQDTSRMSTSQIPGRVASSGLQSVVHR

[10] = target: MAP kinase-activated protein kinase 5 (Homo sapiens, UniProt Q8IW41); type: functional;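 also: measured as one member of a kinome panel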
[11] = target: Tyrosine-protein kinase Blk (Homo sapiens, UniProt P51451); type: functional;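 also: obtained as one member of a kinome-wide kinase assay panel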
[12] = target: Dual specificity mitogen-activated protein kinase kinase 1 (Homo sapiens, UniProt Q02750); assay: Navigating the Kinome. Panel member name: MAP2K1; type: functional
[13] = target: Serine/threonine-protein kinase DCLK1 (Homo sapiens, UniProt O15075); type: functional;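 also: affinity for DCLK1 (listed as DCAMKL1) measured as one member of a kinome-wide kinase profiling panel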
[14] = target: Serine/threonine-protein kinase 17A (Homo sapiens, UniProt Q9UEE5); type: functional
[15] = target: Mitogen-activated protein kinase kinase kinase 20 (Homo sapiens, UniProt Q9NYL2); type: functional
[16] = target: Serine/threonine-protein kinase Nek4 (Homo sapiens, UniProt P51957); type: functional
[17] = target: RAC-alpha serine/threonine-protein kinase (Homo sapiens, UniProt P31749); type: functional;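 also: AKT1 affinity measured as one member of a kinome-wide kinase profiling panel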
Chain of RAC-alpha serine/threonine-protein kinase (P31749 whole entry): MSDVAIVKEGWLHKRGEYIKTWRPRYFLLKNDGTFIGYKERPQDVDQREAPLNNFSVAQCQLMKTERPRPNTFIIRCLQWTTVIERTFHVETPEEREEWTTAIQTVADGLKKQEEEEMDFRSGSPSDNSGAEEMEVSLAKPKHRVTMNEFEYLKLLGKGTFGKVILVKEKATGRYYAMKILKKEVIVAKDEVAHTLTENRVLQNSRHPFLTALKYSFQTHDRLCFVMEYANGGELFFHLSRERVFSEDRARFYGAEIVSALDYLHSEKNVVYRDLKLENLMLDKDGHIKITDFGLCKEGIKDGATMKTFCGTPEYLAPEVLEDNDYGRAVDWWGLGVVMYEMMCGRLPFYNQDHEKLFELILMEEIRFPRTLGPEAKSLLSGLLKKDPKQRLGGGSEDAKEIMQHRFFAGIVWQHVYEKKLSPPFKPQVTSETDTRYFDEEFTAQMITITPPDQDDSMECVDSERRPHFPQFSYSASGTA

[18] = target: Mitogen-activated protein kinase kinase kinase kinase 5 (Homo sapiens, UniProt Q9Y4K4); type: functional;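 also: measured as one member of a kinome-spanning kinase panel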
[19] = target: Proto-oncogene tyrosine-protein kinase receptor Ret (Homo sapiens, UniProt P07949); type: functional;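 also: measured within a kinome-wide profiling panel, RET as the panel member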
Chain of Proto-oncogene tyrosine-protein kinase receptor Ret (P07949 whole entry): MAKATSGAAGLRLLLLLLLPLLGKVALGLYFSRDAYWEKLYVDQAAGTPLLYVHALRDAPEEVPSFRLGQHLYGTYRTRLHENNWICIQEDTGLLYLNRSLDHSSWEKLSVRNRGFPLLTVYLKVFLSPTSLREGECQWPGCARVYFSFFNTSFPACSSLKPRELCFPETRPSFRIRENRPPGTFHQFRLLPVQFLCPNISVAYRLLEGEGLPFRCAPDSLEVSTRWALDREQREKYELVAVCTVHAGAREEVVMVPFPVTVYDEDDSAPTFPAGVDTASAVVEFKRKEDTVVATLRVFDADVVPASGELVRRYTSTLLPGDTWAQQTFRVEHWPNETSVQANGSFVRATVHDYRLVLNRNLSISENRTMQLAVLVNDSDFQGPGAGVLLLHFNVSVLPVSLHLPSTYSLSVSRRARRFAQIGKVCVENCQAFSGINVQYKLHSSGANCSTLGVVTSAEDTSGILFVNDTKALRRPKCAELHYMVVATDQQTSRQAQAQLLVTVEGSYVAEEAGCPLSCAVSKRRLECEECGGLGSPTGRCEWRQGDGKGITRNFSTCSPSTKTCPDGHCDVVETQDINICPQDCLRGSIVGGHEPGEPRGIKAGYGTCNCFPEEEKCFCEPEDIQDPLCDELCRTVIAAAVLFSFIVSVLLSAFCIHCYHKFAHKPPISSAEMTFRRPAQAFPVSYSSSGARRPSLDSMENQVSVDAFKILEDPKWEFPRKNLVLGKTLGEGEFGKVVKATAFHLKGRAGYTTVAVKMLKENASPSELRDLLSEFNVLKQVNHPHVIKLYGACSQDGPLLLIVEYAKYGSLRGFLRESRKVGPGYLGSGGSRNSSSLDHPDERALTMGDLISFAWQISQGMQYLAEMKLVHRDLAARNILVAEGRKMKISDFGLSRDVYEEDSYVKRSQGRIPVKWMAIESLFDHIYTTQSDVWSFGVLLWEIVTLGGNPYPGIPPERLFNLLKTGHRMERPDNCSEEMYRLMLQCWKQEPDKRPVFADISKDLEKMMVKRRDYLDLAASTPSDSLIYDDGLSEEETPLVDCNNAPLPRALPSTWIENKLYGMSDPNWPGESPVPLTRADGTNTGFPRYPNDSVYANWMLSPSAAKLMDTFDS

[20] = target: Serine/threonine-protein kinase PAK 4 (Homo sapiens, UniProt O96013); type: functional;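 also: value obtained within a kinome profiling panel in which PAK4 was one of the panel members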
[21] = target: BDNF/NT-3 growth factors receptor (Homo sapiens, UniProt Q16620); type: functional;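 also: NTRK2 measured as one member of a broad kinome-wide kinase profiling panel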
[22] = target: Cell division cycle 7-related protein kinase (Homo sapiens, UniProt O00311); type: functional;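 also: value obtained from a kinome-wide kinase panel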
[23] = target: Insulin-like growth factor 1 receptor (Homo sapiens, UniProt P08069); assay: Navigating the Kinome. Panel member name: IGF1R; type: functional
Chain of Insulin-like growth factor 1 receptor (P08069 31-736 limits assumed): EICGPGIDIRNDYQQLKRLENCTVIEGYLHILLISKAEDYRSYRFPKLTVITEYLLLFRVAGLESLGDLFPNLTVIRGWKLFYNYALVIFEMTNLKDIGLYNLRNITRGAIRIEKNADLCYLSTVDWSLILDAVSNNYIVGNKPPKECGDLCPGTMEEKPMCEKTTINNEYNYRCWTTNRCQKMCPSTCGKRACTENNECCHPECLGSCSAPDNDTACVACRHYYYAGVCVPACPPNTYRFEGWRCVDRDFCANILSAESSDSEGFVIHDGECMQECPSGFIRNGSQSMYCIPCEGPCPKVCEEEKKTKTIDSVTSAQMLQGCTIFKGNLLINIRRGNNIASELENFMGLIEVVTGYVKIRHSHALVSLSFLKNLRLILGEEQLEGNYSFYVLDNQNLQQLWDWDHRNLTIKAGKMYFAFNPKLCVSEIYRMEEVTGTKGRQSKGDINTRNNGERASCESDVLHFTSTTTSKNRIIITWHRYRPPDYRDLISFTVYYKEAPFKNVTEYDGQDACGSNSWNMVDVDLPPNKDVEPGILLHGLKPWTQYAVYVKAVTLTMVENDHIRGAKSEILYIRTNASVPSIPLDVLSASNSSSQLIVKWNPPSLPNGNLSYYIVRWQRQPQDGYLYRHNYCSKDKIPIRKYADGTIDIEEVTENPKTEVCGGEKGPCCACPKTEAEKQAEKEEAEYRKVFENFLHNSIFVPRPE
Chain of Insulin-like growth factor 1 receptor (P08069 741-1367 limits assumed): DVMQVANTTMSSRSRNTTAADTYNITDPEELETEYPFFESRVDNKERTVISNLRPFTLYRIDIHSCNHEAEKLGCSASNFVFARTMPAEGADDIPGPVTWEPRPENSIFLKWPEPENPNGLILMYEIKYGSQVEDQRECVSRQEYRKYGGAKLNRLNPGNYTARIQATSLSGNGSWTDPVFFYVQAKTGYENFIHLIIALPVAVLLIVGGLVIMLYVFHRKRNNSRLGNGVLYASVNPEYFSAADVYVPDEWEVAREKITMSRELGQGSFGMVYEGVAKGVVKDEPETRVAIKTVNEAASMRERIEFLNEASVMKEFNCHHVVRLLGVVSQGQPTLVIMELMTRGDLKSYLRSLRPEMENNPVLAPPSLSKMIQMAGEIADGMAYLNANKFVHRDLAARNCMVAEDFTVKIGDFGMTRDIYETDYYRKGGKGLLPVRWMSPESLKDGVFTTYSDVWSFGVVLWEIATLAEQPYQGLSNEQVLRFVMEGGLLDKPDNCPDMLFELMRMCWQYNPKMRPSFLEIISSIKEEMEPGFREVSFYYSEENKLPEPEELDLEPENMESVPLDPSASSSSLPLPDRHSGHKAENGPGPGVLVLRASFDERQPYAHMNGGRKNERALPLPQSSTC

[24] = target: Maternal embryonic leucine zipper kinase (Homo sapiens, UniProt Q14680); type: functional
Caspase-3 = target: T2, Caspase-3 (Homo sapiens, UniProt P42574); assay: activation of caspase-3 zymogen – biochemical, absorbance, dose response (AID 489014)
T2 sequence (P42574 whole entry): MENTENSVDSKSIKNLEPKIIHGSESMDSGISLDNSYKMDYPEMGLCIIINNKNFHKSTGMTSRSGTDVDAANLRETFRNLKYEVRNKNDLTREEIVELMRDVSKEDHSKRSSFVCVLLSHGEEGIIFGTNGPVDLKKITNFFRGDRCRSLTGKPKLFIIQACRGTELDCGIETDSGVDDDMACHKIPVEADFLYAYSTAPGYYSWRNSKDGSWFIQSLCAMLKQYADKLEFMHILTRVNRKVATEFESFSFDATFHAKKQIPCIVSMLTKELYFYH

[25] = target: Induced myeloid leukemia cell differentiation protein Mcl-1 (Homo sapiens, UniProt Q07820); type: functional
[26] = NIH3T3 cell viability loss – ATP luminescence, mouse fibroblasts, counter-screen, dose response (AID 2010); type: functional, cell-based;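 also: cells exposed to compound for about 90 hours before reading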
[27] = target: T3, Microphthalmia-associated transcription factor (Homo sapiens, UniProt O75030); assay: reducers of TRPM1 reporter luminescence, concentration series – cell-based, SK-MEL-5, cherry-picked, set 3, MITF inhibitor project, dose response (AID 493073); type: functional;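 also: SK-MEL-5 melanoma cells with luciferase driven by the MITF target TRPM1 promoter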
T3 sequence (O75030 whole entry): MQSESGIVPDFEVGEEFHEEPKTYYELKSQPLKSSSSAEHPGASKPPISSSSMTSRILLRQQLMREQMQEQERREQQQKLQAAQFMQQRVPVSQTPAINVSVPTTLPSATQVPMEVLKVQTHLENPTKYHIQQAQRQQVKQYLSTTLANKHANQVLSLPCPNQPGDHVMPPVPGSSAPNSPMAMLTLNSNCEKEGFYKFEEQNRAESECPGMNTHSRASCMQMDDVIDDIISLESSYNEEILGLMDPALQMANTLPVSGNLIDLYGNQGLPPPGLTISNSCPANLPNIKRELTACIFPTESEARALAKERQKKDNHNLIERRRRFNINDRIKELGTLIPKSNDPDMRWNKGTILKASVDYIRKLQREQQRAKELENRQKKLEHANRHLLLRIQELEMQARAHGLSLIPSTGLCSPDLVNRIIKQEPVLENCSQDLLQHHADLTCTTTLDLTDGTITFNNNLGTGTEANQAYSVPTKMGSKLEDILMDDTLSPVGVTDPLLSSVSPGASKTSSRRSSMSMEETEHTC

CC(C)N(C(=O)Nc1ccc2nsnc2c1)C(C)C
IC50 [1]: > 50 µM (not active)

NS(=O)(=O)c1ccc(NC2=CC(=O)C(=O)c3ccccc32)cc1
EC50 [2]: > 120 µM (not active)
IC50 [3]: 38.9 µM (not active)

Clc1cc(-c2c[nH]c3ncccc23)nc(NC2CCCCC2)n1
Ki [4]: 794 nM (active)
Ki [5]: > 7.94 µM (inactive)
Ki [6]: 3.16 µM (active)
Ki [7]: > 3.98 µM (inactive)
Ki [8]: 251 nM (active)
Ki [9]: 63.1 nM (active)
Ki [10]: > 1.58 µM (inactive)
Ki [11]: > 1.58 µM (inactive)
Ki [12]: 200 nM (active)
Ki [13]: > 10 µM (inactive)
Ki [14]: 1 µM (active)
Ki [15]: > 7.94 µM (inactive)
Ki [16]: > 6.31 µM (inactive)
Ki [17]: > 7.94 µM (inactive)
Ki [18]: > 2 µM (inactive)
Ki [19]: > 2 µM (inactive)
Ki [20]: > 2 µM (inactive)
Ki [21]: 2 µM (active)
Ki [22]: 0.501 nM (active)
Ki [23]: > 2 µM (inactive)
Ki [24]: 316 nM (active)

O=C(N/N=C/c1ccc(O)cc1O)c1ccc(CN2C(=O)c3cccc4cccc2c34)cc1
EC50 (Caspase-3): > 85.3 µM (inactive)
IC50 [25]: 1.47 µM (active)

CCC(=O)NC(c1ccccc1OC)c1ccc2cccnc2c1O (stereo not drawn)
EC50 [26]: 1.67 µM (active)
AC50 [27]: 6.7 µM (active)
